Source: patent US9708266B2, “Cyclohexyl pyridine derivative” (priority 2014, dated 2017)
pIC50: −log10 of the molar value.

Columns and labels:
[1] = biological target: human NK1 receptor (Homo sapiens (Human), UniProt P25103); assay: Affinity for human NK1 receptor (125I-substance P receptor binding test); conditions: membrane fraction of human NK1 receptor-expressing 293T cells; read-out: IC50 (concentration required for 50% inhibition of 125I-substance P binding)
Method: Affinity for Human NK1 Receptor
PCR was performed using human adult normal tissue-derived brain cDNA (BioChain) as the template, with the forward primer of SEQ ID NO:1 and the reverse primer of SEQ ID NO:2, using a PCR enzyme, PrimeSTAR Max DNA Polymerase or PrimeSTAR GXL DNA Polymerase (registered trademark, Takara Bio). The amplified product was inserted into a plasmid (pCR-BluntII-TOPO (registered trademark), Life Technologies) using Zero Blunt PCR Cloning Kit (registered trademark, Life Technologies). By a general method, Escherichia coli (One Shot TOP10 competent cells, Life Technologies) was transformed by the plasmid into which the amplified product had been inserted. The Escherichia coli cells were cultured on an LB agar medium containing 50 μg/mL kanamycin for a day. After the culture, a colony was selected and cultured in an LB medium containing 50 μg/mL of kanamycin. After the culture, the plasmid was purified using Quantum Prep Plasmid Miniprep Kit (Bio-Rad). The plasmid was double digested for about two hours using restriction enzymes, XhoI and HindIII (New England Biolabs). Then, electrophoresis using 1% agarose gel was performed, and the fragment that was cleaved was collected and purified using TaKaRa RICOCHIP (Takara Bio). […]

[2] = biological target: NK1 receptor (Meriones unguiculatus (Mongolian jird) (Gerbillus unguiculatus), UniProt Q5DUB1); assay: Effect on GR73632-induced foot-tapping; format: in vivo; conditions: male gerbil, 0.1 mg/kg iv, GR73632 icv after four hours
Method: The test compound solution was prepared by dissolving the test compound in a vehicle (a mixture of 50% N,N-dimethylacetamide (Wako Pure Chemical Industries), 30% propylene glycol (Wako Pure Chemical Industries), 4% 2-hydroxypropyl-[…] (Wako Pure Chemical Industries) and 16% distilled water).
A male gerbil (Japan SLC) was anesthetized with isoflurane, and 0.1 mg/kg of a test compound was administered from the jugular vein. After four hours, GR73632 (5 pmol/5 μl saline), which is an NK1 receptor agonist, was administered into the cerebral ventricle at the part 1 mm lateral to and 4.5 mm below the bregma in the head, under anesthesia with isoflurane. After the administration, the gerbil was moved to an observation cage, and the foot-tapping period during 30 minutes after the recovery of the righting reflex was measured. The foot-tapping inhibition rate (%) of each test compound was calculated by the following equation. Foot-tapping inhibition rate (%)={1−(Foot-tapping period when test compound was administered)/(Foot-tapping period when solvent was administered)}×100 (2) Measurement of Drug Concentrations

Sequence of NK1 receptor (Q5DUB1 whole entry): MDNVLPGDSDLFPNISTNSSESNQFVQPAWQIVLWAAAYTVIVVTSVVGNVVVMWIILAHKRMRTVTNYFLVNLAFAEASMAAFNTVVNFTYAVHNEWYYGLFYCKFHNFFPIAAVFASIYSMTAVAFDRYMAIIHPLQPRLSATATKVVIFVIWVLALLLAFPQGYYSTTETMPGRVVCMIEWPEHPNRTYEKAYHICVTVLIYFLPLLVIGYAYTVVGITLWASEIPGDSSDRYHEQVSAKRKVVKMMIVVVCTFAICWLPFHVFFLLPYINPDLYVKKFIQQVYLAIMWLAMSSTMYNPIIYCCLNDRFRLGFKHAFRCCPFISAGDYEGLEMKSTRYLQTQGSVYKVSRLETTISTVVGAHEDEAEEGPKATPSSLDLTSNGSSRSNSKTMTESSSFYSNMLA
Sequence of human NK1 receptor (P25103 whole entry): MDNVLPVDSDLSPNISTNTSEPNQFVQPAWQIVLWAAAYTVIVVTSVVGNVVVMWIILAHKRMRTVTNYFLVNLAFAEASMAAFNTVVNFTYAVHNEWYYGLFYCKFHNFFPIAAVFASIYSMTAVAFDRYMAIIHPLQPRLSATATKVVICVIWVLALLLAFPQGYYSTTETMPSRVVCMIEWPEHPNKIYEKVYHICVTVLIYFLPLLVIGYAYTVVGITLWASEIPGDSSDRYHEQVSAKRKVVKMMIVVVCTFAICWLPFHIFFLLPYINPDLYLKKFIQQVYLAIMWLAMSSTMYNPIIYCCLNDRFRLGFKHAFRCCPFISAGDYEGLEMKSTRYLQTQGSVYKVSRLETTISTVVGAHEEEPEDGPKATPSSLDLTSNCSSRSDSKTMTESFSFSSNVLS

Structure (SMILES): Cc1cc(F)ccc1-c1cc(C2CCC(CCC(=O)O)CC2)ncc1N(C)C(=O)C(C)(C)c1cc(C(F)(F)F)cc(C(F)(F)F)c1 (centres unmarked) [Example 2, 3-{4-[5-{[2-(3,5-Bistrifluoromethylphenyl)-2-methylpropionyl]methylamino}-4-(4-fluoro-2-methylphenyl)pyridin-2-yl]cyclohexyl}propionic acid]
- pIC50 [1]: 8.75
- Inhibition (foot-tapping inhibition rate) [2]: 100%
